From patent US20250388602A1 (Genase Therapeutics B.V., priority 2022, published 2025)
Read-outs that look alike come from different tables or passages of the source. Values belong to the compound of their own block, whether it stands above or below them.

Columns and labels:
recombinant human DHODH = recombinant human DHODH (Homo sapiens (Human), UniProt Q02127); experiment: DHODH enzyme assay (Assay A), DCIP absorbance; type: biochemical; settings: bins ≥10 nM-<100 nM and <10 nM; read-out: IC50 DHODH inhibition activity
in vitro [1] = settings: for hHEPs % remaining: 1 μM
Method: Human Hepatocyte metabolic stability: Human hepatocytes (X008000, BioIVT) were freshly thawed prior to the incubations with test compound. Hepatocytes were transferred to 50 mL conical tubes and centrifuged 10 min at 100 g. Thawing medium was removed and replaced by preheated (37° C.) incubation medium (William's E Medium supplemented with GlutaMAX), to yield a hepatocyte density ˜1.5×10^6 cells/mL. Cell viability was determined using AO/PI staining and hepatocytes were diluted using incubation medium to a working density of 0.5×10^6 viable cells/mL. 198 μL of hepatocytes were added into each well of a 96-well plate and placed in the incubator to allow the hepatocytes to warm for 10 minutes. 2 μL test compound or positive control was placed into respective wells of the 96-well plate (final concentration test compound 1 μM) to start the reaction. The plate was returned to the incubator and 25 μL aliquots of the well contents were removed at time points of 0, 15, 30, 60, 90 and 120 minutes. The aliquots were mixed with 6 volumes (150 μL) of acetonitrile containing internal standards (100 nM alprazolam, 200 nM caffeine, and 100 nM tolbutamide) to terminate the reaction. The plate was centrifuged for 20 minutes at 3,200 g. Aliquots of 150 μL of the supernatants were used for LC/MS/MS analysis. All incubations were performed in duplicate.
(§1) Peak areas were determined from extracted ion chromatograms to determine the in vitro half-life (t½) of parent compound by regression analysis of the percent parent disappearance vs. time curve. The in vitro half-life (in vitro t½) was determined from the slope value (in vitro t½=−0.693/k). All calculations were carried out using Microsoft Excel.

in vitro [2] = settings: for HLM % remaining: % remaining at 60 min, 1 μM; for half-life at 1 μM: both, human
Method: Human Liver Microsomal metabolic stability: The microsomal metabolic stability assay utilized pooled human liver microsomes (mixed gender, BD Gentest), with supplemented cofactors NADPH and UDPGA (Solarbio S&T Co., LTD). Two separate experiments were performed as follows: • a) With cofactors (NADPH & UDPGA): 25 μL of 10 mM NADPH and 25 μL of 20 mM UDPGA were added to 197.5 μL of reaction solution (phosphate buffer (final concentration in assay 100 mM), MgCl2 (final concentration in assay (5 mM)), alamethacin (final concentration in assay 0.025 mg/mL) and microsomes (final concentration in assay 0.5 mg/mL). • b) Without cofactors (NADPH & UDPGA): 50 μL of H2O was added to 197.5 μL of reaction solution.
The mixture was pre-warmed at 37° C. for 10 minutes. The reaction was started with the addition of 2.5 μL of 100 μM control compound or test compound solutions. Diclofenac was used as positive control in this study. The final concentration of control compound and test compounds was 1 μM. Aliquots of 25 μL were taken from the reaction solution at 0.5, 5, 15, 30 and 60 minutes. The reaction was stopped by the addition of 5 volumes of cold acetonitrile containing internal standards. Samples were centrifuged at 3,220 g for 40 minutes. An aliquot of 100 μL of the supernatant was mixed with 100 μL of ultra-pure H2O and then used for LC-MS/MS analysis. Peak areas were determined from extracted ion chromatograms. Percent parent remaining was calculated from the area ratio of test compound. The slope value was determined by linear regression of the natural logarithm of percent parent remaining versus incubation time curve.
as §1

MOLM-13 cells = experiment: MOLM-13 cell viability (Assay B), Cell Titer-Glo; type: cell-based; settings: for IC50: Homo sapiens, read-out: IC50 MOLM13 inhibition activity
Procedure, shortened: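 Cells at 1,000 per well in RPMI/10% FBS were exposed to compound (10E-5 to 6E-12 M), with or without 100 μM uridine, for 72 h. Viability was read by CellTiter-Glo luminescence. Duplicates were run, and potency was taken from two independent experiments.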

[3] = MOLM-13, 72 hours, bins ≥10 nM-<100 nM and <10 nM

Sequence of recombinant human DHODH (Q02127 whole entry): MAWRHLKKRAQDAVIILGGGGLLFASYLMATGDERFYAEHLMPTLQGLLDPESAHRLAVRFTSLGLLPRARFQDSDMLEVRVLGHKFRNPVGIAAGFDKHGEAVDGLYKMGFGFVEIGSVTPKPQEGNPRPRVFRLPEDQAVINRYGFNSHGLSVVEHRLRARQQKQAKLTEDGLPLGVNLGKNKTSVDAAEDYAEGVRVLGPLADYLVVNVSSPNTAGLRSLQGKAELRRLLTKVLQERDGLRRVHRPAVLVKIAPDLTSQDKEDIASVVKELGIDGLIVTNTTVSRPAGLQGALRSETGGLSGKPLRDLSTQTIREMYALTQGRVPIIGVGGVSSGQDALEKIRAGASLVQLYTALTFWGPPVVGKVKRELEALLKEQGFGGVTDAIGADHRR

Compound: CC(C)OC(=O)c1cccc(-n2ncc3c2COC[C@H]3NC(=O)c2ncn3c2CCCC3)c1Cl [Ex-69, Isopropyl (S)-2-chloro-3-(4-(5,6,7,8-tetrahydroimidazo[1,5-a]pyridine-1-carboxamido)-4,7-dihydropyrano[3,4-c]pyrazol-1(5H)-yl)benzoate]
IC50 (recombinant human DHODH): < 10 nM
hHEPs % remaining (in vitro [1]; % remaining at 120 min): BLOD@
half-life at 1 μM (in vitro [1]; human, hepatocytes): 4.6 min
HLM % remaining (in vitro [2]): 0.14%
half-life at 1 μM (in vitro [2]; microsomes): 7.3 min
IC50 (MOLM-13 cells; MOLM-13, 72 h): < 10 nM

Compound: O=C(N[C@@H]1COCc2c1cnn2-c1ccccc1F)c1ncc2n1CCCC2 (single isomer, unassigned) [Ex-6]
IC50 (recombinant human DHODH): 10 to 100 nM
half-life at 1 μM (in vitro [1]; human, hepatocytes): 294 min
hHEPs % remaining (in vitro [1]; human, hepatocytes, 2 h): 87%
HLM % remaining (in vitro [2]): 85%
half-life at 1 μM (in vitro [2]; pooled liver microsomes): 285 min
IC50 (MOLM-13 cells; [3]): 10 to 100 nM

Compound: Cc1cccc(F)c1-n1ncc2c1COC[C@H]2NC(=O)c1ncn2c1CCCC2 [Ex-58, (S)—N-(1-(2-fluoro-6-methylphenyl)-1,4,5,7-tetrahydropyrano[3,4-c]pyrazol-4-yl)-5,6,7,8-tetrahydroimidazo[1,5-a]pyridine-1-carboxamide]
IC50 (recombinant human DHODH): 10 to 100 nM
hHEPs % remaining (in vitro [1]; % remaining at 120 min): 100%
half-life at 1 μM (in vitro [1]; human, hepatocytes): > 600 min
HLM % remaining (in vitro [2]): 87%
half-life at 1 μM (in vitro [2]; pooled liver microsomes): 275 min
IC50 (MOLM-13 cells; [3]): 10 to 100 nM

Compound: Cc1cnc(C(=O)N[C@@H]2COCc3c2cnn3-c2c(F)cccc2Cl)cc1C [Ex-48, (S)—N-(1-(2-chloro-6-fluorophenyl)-1,4,5,7-tetrahydropyrano[3,4-c]pyrazol-4-yl)-4,5-dimethylpicolinamide]
IC50 (recombinant human DHODH): 10 to 100 nM
hHEPs % remaining (in vitro [1]; % remaining at 120 min): 82%
half-life at 1 μM (in vitro [1]; human, hepatocytes): 358 min
HLM % remaining (in vitro [2]): 96%
half-life at 1 μM (in vitro [2]; pooled liver microsomes): 365 min
IC50 (MOLM-13 cells; [3]): 10 to 100 nM

Second part, led by results:

IC50 (recombinant human DHODH): < 10 nM
hHEPs % remaining (in vitro [1]; % remaining at 120 min): 90%
half-life at 1 μM (in vitro [1]; human, hepatocytes): > 600 min
HLM % remaining (in vitro [2]): 93%
half-life at 1 μM (in vitro [2]; pooled liver microsomes): > 365 min
IC50 (MOLM-13 cells; [3]): < 10 nM
Compound: O=C(N[C@@H]1COCc2c1cnn2-c1c(F)cccc1Cl)c1ncn2c1CCCC2 (single isomer, unassigned) [Ex-11]
MOLM13 cell growth and/or viability (FIG. 2) (MOLM-13 cells; absence of uridine): reduce MOLM13 cell growth and/or viability
effect on MOLM13 cell growth and/or viability on addition of excess uridine (FIG. 2) (MOLM-13 cells; presence of 100 μM uridine): largely prevented

IC50 (recombinant human DHODH): 10 to 100 nM
hHEPs % remaining (in vitro [1]; % remaining at 120 min): 100%
half-life at 1 μM (in vitro [1]; human, hepatocytes): > 600 min
HLM % remaining (in vitro [2]): 94%
half-life at 1 μM (in vitro [2]; pooled liver microsomes): > 365 min
IC50 (MOLM-13 cells; [3]): 10 to 100 nM
Compound: COc1cccc(C)c1-n1ncc2c1COC[C@H]2NC(=O)c1ncn2c1CCCC2 [Ex-61, (S)—N-(1-(2-methoxy-6-methylphenyl)-1,4,5,7-tetrahydropyrano[3,4-c]pyrazol-4-yl)-5,6,7,8-tetrahydroimidazo[1,5-a]pyridine-1-carboxamide]

IC50 (recombinant human DHODH): 10 to 100 nM
hHEPs % remaining (in vitro [1]; % remaining at 120 min): 99%
half-life at 1 μM (in vitro [1]; human, hepatocytes): > 600 min
HLM % remaining (in vitro [2]): 96%
half-life at 1 μM (in vitro [2]; pooled liver microsomes): > 365 min
IC50 (MOLM-13 cells; [3]): 10 to 100 nM
Compound: Cc1ccc(Cl)c(-n2ncc3c2COC[C@H]3NC(=O)c2ncn3c2CCCC3)c1 [Ex-53, (S)—N-(1-(2-chloro-5-methylphenyl)-1,4,5,7-tetrahydropyrano[3,4-c]pyrazol-4-yl)-5,6,7,8-tetrahydroimidazo[1,5-a]pyridine-1-carboxamide]

IC50 (recombinant human DHODH): 10 to 100 nM
half-life at 1 μM (in vitro [1]; human, hepatocytes): > 600 min
hHEPs % remaining (in vitro [1]; human, hepatocytes, 2 h): 100%
HLM % remaining (in vitro [2]): 84%
half-life at 1 μM (in vitro [2]; pooled liver microsomes): 271 min
IC50 (MOLM-13 cells; [3]): 10 to 100 nM
Compound: Cc1ccccc1-n1ncc2c1COC[C@H]2NC(=O)c1ncn2c1CCCC2 [Ex-52, (S)—N-(1-(o-tolyl)-1,4,5,7-tetrahydropyrano[3,4-c]pyrazol-4-yl)-5,6,7,8-tetrahydroimidazo[1,5-a]pyridine-1-carboxamide]

IC50 (recombinant human DHODH): 10 to 100 nM
hHEPs % remaining (in vitro [1]; % remaining at 120 min): 89%
half-life at 1 μM (in vitro [1]; human, hepatocytes): > 600 min
HLM % remaining (in vitro [2]): 90%
half-life at 1 μM (in vitro [2]; pooled liver microsomes): > 365 min
IC50 (MOLM-13 cells; [3]): 10 to 100 nM
Compound: O=C(N[C@@H]1COCc2c1cnn2-c1c(F)cccc1Cl)c1n[nH]c2c1CCCC2 [Ex-46, (S)—N-(1-(2-chloro-6-fluorophenyl)-1,4,5,7-tetrahydropyrano[3,4-c]pyrazol-4-yl)-4,5,6,7-tetrahydro-1H-indazole-3-carboxamide]
